Laboratory results as given in paper PMC6112128, “Discovery and characterization of the tubercidin biosynthetic pathway from Streptomyces tubercidicus NBRC 13090” (Microbial Cell Factories, 2018).

How the values were obtained:
TubE = molecular target: T1, TubE (Streptomyces tubercidicus, UniProt A0A384YVR8); assay: HPLC and LC-MS product detection; product NMR; assay type: biochemical; conditions: 1 mM CDG, 2 mM PRPP, 5 mM MgCl2, 1 mM DTT, 100 mM PBS pH 7.5, 30 °C, 8 h
T1 construct: gene Stube_10250; full-length, 194 aa, His6-tagged (pET28a NdeI-EcoRI), E. coli Rosetta (DE3)/pLysS
T1 sequence (A0A384YVR8 1-194): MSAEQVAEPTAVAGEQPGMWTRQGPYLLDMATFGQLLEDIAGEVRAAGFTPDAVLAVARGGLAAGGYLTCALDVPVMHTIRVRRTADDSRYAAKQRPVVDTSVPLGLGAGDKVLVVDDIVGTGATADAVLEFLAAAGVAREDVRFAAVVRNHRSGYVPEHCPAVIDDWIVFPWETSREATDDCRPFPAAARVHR

TubD = molecular target: T2, TubD (Streptomyces tubercidicus, UniProt A0A384YXG2); assay: LC-MS detection of IMP; assay type: biochemical; conditions: 1 mM NADPH, 1 mM GMP, 50 mM KCl, 1 mM DTT, 2 mM EDTA, 100 mM Tris-HCl pH 7.5, 30 °C, 4 h
T2 construct: gene Stube_10260; full-length, 385 aa, His6-tagged (pET28a NdeI-EcoRI), E. coli Rosetta (DE3)/pLysS
T2 sequence (A0A384YXG2 1-385): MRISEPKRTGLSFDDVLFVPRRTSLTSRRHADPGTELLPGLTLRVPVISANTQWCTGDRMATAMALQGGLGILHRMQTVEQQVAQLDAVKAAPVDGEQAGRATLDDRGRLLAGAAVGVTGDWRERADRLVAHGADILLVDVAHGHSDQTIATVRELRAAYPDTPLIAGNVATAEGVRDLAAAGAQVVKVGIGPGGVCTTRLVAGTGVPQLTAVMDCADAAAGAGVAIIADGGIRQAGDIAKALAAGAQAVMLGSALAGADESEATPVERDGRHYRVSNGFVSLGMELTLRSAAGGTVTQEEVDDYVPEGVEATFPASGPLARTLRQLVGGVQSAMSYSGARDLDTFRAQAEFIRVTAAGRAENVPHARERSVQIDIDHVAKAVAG

SMILES	HPLC and LC-MS product detection; product NMR (TubE)	LC-MS detection of IMP (TubD)
Nc1nc2[nH]cc(C(=O)O)c2c(=O)[nH]1 [CDG]	all of the data demonstrate that TubE functions as a CDG-specific phosphoribosyltransferase	–
NC(=O)C1=CN([C@@H]2O[C@H](COP(=O)(O)OP(=O)(O)OC[C@H]3O[C@@H](n4cnc5c(N)ncnc54)[C@H](OP(=O)(O)O)[C@@H]3O)[C@@H](O)[C@H]2O)C=CC1 [NADPH]	–	this cofactor could not replace NADPH to supply reducing equivalents for the TubD reaction
O=P(O)(O)OC[C@H]1O[C@H](OP(=O)(O)OP(=O)(O)O)[C@H](O)[C@@H]1O [PRPP]	HPLC profile of the TubE reaction using PRPP and CDG as substrates	–
